What was measured:
[1] = system: HBV; test: Determination of HBV DNA from the supernatants of HepAD38 cells (anti-HBV activity); type: cell-based, hepatitis B virus; details: Hepatitis B virus, HePAD38, 144 h, HBV DNA in HepAD38 supernatant, day 6, qPCR; read-out: Cell Activity
Experimental: The anti-HBV activity was analysed in the stable transfected cell line HepAD38, which has been described to secrete high levels of HBV virion particles (Ladner et al., 1997). In brief, HepAD38 cells were cultured at 37° C. at 5% CO2 and 95% humidity in 200 μl maintenance medium, which was Dulbecco's modified Eagle's medium/Nutrient Mixture F-12 (Gibco, Karlsruhe), 10% fetal bovine serum (PAN Biotech Aidenbach) supplemented with 50 μg/ml penicillin/streptomycin (Gibco, Karlsruhe), 2 mM L-glutamine (PAN Biotech, Aidenbach), 400 μg/ml G418 (AppliChem, Darmstadt) and 0.3 μg/ml tetracycline. Cells were subcultured once a week in a 1:5 ratio, but were usually not passaged more than ten times. For the assay 60,000 cells were seeded in maintenance medium without any tetracycline into each well of a 96-well plate and treated with serial half-log dilutions of test compound. To minimize edge effects the outer 36 wells of the plate were not used but were filled with assay medium. On each assay plate six wells for the virus control (untreated HepAD38 cells) and six wells for the cell control (HepAD38 cells treated with 0.3 μg/ml tetracycline) were allocated, respectively. In addition, one plate set with reference inhibitors like BAY 41-4109, entecavir, and lamivudine instead of screening compounds were prepared in each experiment. In general, experiments were performed thrice in triplicates. At day 6 HBV DNA from 100 μl filtrated cell culture supernatant (AcroPrep Advance 96 Filter Plate, […] Supor membran, PALL GmbH, Dreieich) was automatically purified on the MagNa Pure LC instrument using the MagNA Pure 96 DNA and Viral NA Small Volume Kit (Roche Diagnostics, Mannheim) according to the instructions of the manufacturer. EC50 values were calculated from relative copy numbers of HBV DNA In brief, 5 μl of the 100 μl eluate containing HBV DNA were subjected to PCR LC480 Probes Master Kit (Roche) together with 1 μM antisense primer […], 0.5 μM sense primer […], 0.3 μM hybprobes […]-FL and LC640-[…]-PH (TIBMolBiol, Berlin) to a final volume of 12.5 μl. The PCR was performed on the Light Cycler 480 real time system (Roche Diagnostics, Mannheim) using the following protocol: Pre-incubation for 1 min at 95° C., amplification: 40 cycles×(10 sec at 95° C., 50 sec at 60° C., 1 sec at 70° C.), cooling for 10 sec at 40° C. Viral load was quantitated against known standards using HBV plasmid DNA of pCH-9/3091 (Nassal et al., 1990, Cell 63: 1357-1363) and the LightCycler 480 SW 1.5 software (Roche Diagnostics, Mannheim) and ECso values were calculated using non-linear regression with GraphPad Prism 6 (GraphPad Software Inc., La Jolla, USA).

[2] = biological target: HBV core protein (C-terminal truncated core protein containing 149 amino acids of the N-terminal assembly domain) (UniProt P03146); test: Biochemical capsid assembly assay (fluorescence quenching); design: rows headed: Assembly Activity; other: BODIPY-FL labelled core protein, assembly started with NaCl, read after 6 min; details: read-out: Assembly Activity; BODIPY-FL labelled core protein, assembly started with NaCl, read after 6 min
Experimental: The screening for assembly effector activity was done based on a fluorescence quenching assay published by Zotnick et al. (2007). The C-terminal truncated core protein containing 149 amino acids of the N-terminal assembly domain fused to a unique cysteine residue at position 150 and was expressed in E. coli using the pET expression system (Merck Chemicals, Darmstadt). Purification of core dimer protein was performed using a sequence of size exclusion chromatography steps. In brief, the cell pellet from 1 L BL21 (DE3) Rosetta2 culture expressing the coding sequence of core protein cloned NdeI/XhoI into expression plasmid pET21b was treated for 1 h on ice with a native lysis buffer (Qproteome Bacterial Protein Prep Kit; Qiagen, Hilden). After a centrifugation step the supernatant was precipitated during 2 h stirring on ice with 0.23 g/ml of solid ammonium sulfate. Following further centrifugation the resulting pellet was resolved in buffer A (100 mM Tris, pH 7.5; 100 mM NaCl; 2 mM DTT) and was subsequently loaded onto a buffer A equilibrated CaptoCore 700 column (GE HealthCare, Frankfurt). The column flow through containing the assembled HBV capsid was dialyzed against buffer N (50 mM NaHCO3 pH 9.6; 5 mM DTT) before urea was added to a final concentration of 3M to dissociate the capsid into core dimers for 1.5 h on ice. The protein solution was then loaded onto a IL Sephacryl S300 column. After elution with buffer N core dimer containing fractions were identified by SDS-PAGE and subsequently pooled and dialyzed against 50 mM HEPES pH 7.5; 5 mM DTT. To improve the assembly capacity of the purified core dimers a second round of assembly and disassembly starting with the addition of 5 M NaCl and including the size exclusion chromatography steps described above was performed. From the last chromatography step core dimer containing fractions were pooled and stored in aliquots at concentrations between 1.5 to 2.0 mg/ml at −80° C.
Immediately before labelling the core protein was reduced by adding freshly prepared DTT in a final concentration of 20 mM. After 40 min incubation on ice storage buffer and DTT was removed using a Sephadex G-25 column (GE HealthCare, Frankfurt) and 50 mM HEPES, pH 7.5. For labelling 1.6 mg/ml core protein was incubated at 4° C. and darkness overnight with BODIPY-FL maleimide (Invitrogen, Karlsruhe) in a final concentration of 1 mM. After labelling the free dye was removed by an additional desalting step using a Sephadex G-25 column. Labelled core dimers were stored in aliquots at 4° C. In the dimeric state the fluorescence signal of the labelled core protein is high and is quenched during the assembly of the core dimers to high molecular capsid structures. The screening assay was performed in black 384 well microtiter plates in a total assay volume of 10 μl using 50 mM HEPES pH 7.5 and 1.0 to 2.0 μM labelled core protein. Each screening compound was added in 8 different concentrations using a 0.5 log-unit serial dilution starting at a final concentration of 100 μM, 31.6 μM or 10 μM, In any case the DMSO concentration over the entire microtiter plate was 0.5%. The assembly reaction was started by the injection of NaCl to a final concentration of […] which induces the assembly process to approximately 25% of the maximal quenched signal. 6 min after starting the reaction the fluorescence signal was measured using a Clariostar plate reader (BMG Labtech, Ortenberg) with an excitation of 477 nm and an emission of 525 nm. As 100% and 0% assembly control HEPES buffer containing 2.5 M and 0 M NaCl was used. Experiments were performed thrice in triplicates. EC50 values were calculated by non-linear regression analysis using the Graph Pad Prism 6 software (GraphPad Software, La Jolla, USA).

[3] = Cell viability assay (AlamarBlue); details: human, HepAD38 cells

Chain of HBV core protein (C-terminal truncated core protein containing 149 amino acids of the N-terminal assembly domain) (P03146 whole entry, the tested form may be a part): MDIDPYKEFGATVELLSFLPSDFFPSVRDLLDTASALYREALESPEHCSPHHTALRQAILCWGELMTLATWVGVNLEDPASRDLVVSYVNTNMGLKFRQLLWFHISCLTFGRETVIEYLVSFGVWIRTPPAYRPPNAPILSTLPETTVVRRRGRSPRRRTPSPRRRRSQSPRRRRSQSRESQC

Compound | EC50 [1] [µM] | IC50 [2] [µM] | CC50 at 6 days [3] [µM]
O=C(NC1(COC(F)F)CC1)c1cnn2c1CN(C(=O)c1cc3c(Cl)cccc3[nH]1)CC2 [Example 105, 5-(4-chloro-1H-indole-2-carbonyl)-N-{1-[(difluoromethoxy)methyl]cyclopropyl}-4H,5H,6H,7H-pyrazolo[1,5-a]pyrazine-3-carboxamide] | < 1 | < 5 | > 10
Cc1cc(F)cc2[nH]c(C(=O)N3CCn4ncc(C(=O)N(C)C5(CO)CC5)c4C3)cc12 [Example 83, 5-(6-fluoro-4-methyl-1H-indole-2-carbonyl)-N-[1-(hydroxymethyl)cyclopropyl]-N-methyl-4H,5H,6H,7H-pyrazolo[1,5-a]pyrazine-3-carboxamide] | < 1 | < 5 | > 10
CC1Cn2ncc(C(=O)NC3(COC(F)F)CC3)c2CN1C(=O)c1cc2ccccc2[nH]1 (racemic) [Example 130, N-{1-[(difluoromethoxy)methyl]cyclopropyl}-5-(1H-indole-2-carbonyl)-6-methyl-4H,5H,6H,7H-pyrazolo[1,5-a]pyrazine-3-carboxamide] | < 1 | < 5 | > 10
CN(C(=O)c1cnn2c1CN(C(=O)c1cc3ccccc3[nH]1)CC2)C1CCC1 [Example 133, N-cyclobutyl-5-(1H-indole-2-carbonyl)-N-methyl-4H,5H,6H,7H-pyrazolo[1,5-a]pyrazine-3-carboxamide] | 1 to 10 | < 5 | > 10
CN(C(=O)c1cnn2c1CN(C(=O)c1cc3ccccc3[nH]1)CC2)C1(CO)CC1 [Example 15, N-[1-(hydroxymethyl)cyclopropyl]-5-(1H-indole-2-carbonyl)-N-methyl-4H,5H,6H,7H-pyrazolo[1,5-a]pyrazine-3-carboxamide] | < 1 | < 5 | > 10
CN(Cc1ccccc1)C(=O)c1cnn2c1CN(C(=O)c1cc3ccccc3[nH]1)CC2 [Example 63, N-benzyl-5-(1H-indole-2-carbonyl)-N-methyl-4H,5H,6H,7H-pyrazolo[1,5-a]pyrazine-3-carboxamide] | < 1 | < 5 | > 10
O=C(c1cc2ccccc2[nH]1)N1CCn2ncc(S(=O)(=O)NCC3(O)CCC3)c2C1 [Example 27, N-[(1-hydroxycyclobutyl)methyl]-5-(1H-indole-2-carbonyl)-4H,5H,6H,7H-pyrazolo[1,5-a]pyrazine-3-sulfonamide] | 1 to 10 | 5 to 10 | > 10
O=C(c1cc2ccccc2[nH]1)N1CCn2ncc(C(=O)N3CCC(O)CC34CC4)c2C1 (stereo not drawn) [Example 58, 4-[5-(1H-indole-2-carbonyl)-4H,5H,6H,7H-pyrazolo[1,5-a]pyrazine-3-carbonyl]-4-azaspiro[2.5]octan-7-ol] | < 1 | < 5 | > 10
CN(CCO)C(=O)c1cnn2c1CN(C(=O)c1cc3ccccc3[nH]1)CC2 [Example 77, N-(2-hydroxyethyl)-5-(1H-indole-2-carbonyl)-N-methyl-4H,5H,6H,7H-pyrazolo[1,5-a]pyrazine-3-carboxamide] | < 1 | < 5 | > 10
O=C(c1cc2ccccc2[nH]1)N1CCn2ncc(N3CCC4(CC4)C3=O)c2C1 [Example 76, 5-[5-(1H-indole-2-carbonyl)-4H,5H,6H,7H-pyrazolo[1,5-a]pyrazin-3-yl]-5-azaspiro[2.4]heptan-4-one] | 1 to 10 | 5 to 10 | > 10
COCC1(N(C)C(=O)c2cnn3c2CN(C(=O)c2cc4c(Cl)cccc4[nH]2)CC3)CC1 [Example 7, 5-(4-chloro-1H-indole-2-carbonyl)-N-[1-(methoxymethyl)cyclopropyl]-N-methyl-4H,5H,6H,7H-pyrazolo[1,5-a]pyrazine-3-carboxamide] | < 1 | < 5 | > 10
